Measured values published in patent US20170319534A1, “EUTECTIC ANESTHETIC TOPICAL COMPOSITIONS” (Humco Holding Group, Inc., priority 2016, published 2017).

Experiments:
[1] = system: normal human 3D model of epidermal tissue
Description: The remaining components shown in Example 1 above were reduced accordingly, such as by 30.5%. […] Standard Ointment includes 95% white petrolatum and 5% white wax. Permeation was measuring using Franz type diffusion cells and a normal human 3D model of epidermal tissue.

[2] = 3-month/40° C. stability of topical anesthetics; assay type: physicochemical; conditions: for content as percent (in parentheses), 30 DAYS / content, 30 DAYS / content as percent (in parentheses), 60 DAYS / content, 60 DAYS / content as percent (in parentheses), 90 DAYS / content, 90 DAYS: 40° C.; for content as percent (in parentheses), INITIAL / content, INITIAL: 3-month/40° C. stability; for EXPIRY DATING: tentative expiry dating from 3-month/40° C. stability data
Protocol: The tables below show expiration dates for various topical anesthetics, including 3-month/40° C. stability data. Full-term controlled room temperature stability data are used to support the tentative expiry dating.

[3] = cited from earlier work

Percutaneous Absorption Testing, 12 Hours [1] [%]	Percutaneous Absorption Testing, 24 Hours [1] [%]	Percutaneous Absorption Testing, 36 Hours [1] [%]	Percutaneous Absorption Testing, 48 Hours [1] [%]	content as percent (in parentheses), 30 DAYS [2]	content, 30 DAYS [2] [% W/W]	content as percent (in parentheses), 60 DAYS [2]	content, 60 DAYS [2] [% W/W]	content as percent (in parentheses), 90 DAYS [2]	content, 90 DAYS [2] [% W/W]	content as percent (in parentheses), INITIAL [2]	content, INITIAL [2] [% W/W]	EXPIRY DATING [2] [YEARS]	Compound	time to peak effect (ranking) ([3]; applied to mucous membranes)	duration of action after topical application [3]
100	100	100	100	(102.5%)	20.5	(102.0%)	20.4	(98.0%)	19.6	(99.0%)	19.8	~1.2	CCOC(=O)c1ccc(N)cc1 [Benzocaine]	fastest	
													CCCCOc1cc(C(=O)NCCN(CC)CC)c2ccccc2n1 [Dibucaine]		3 to 4 h
				(103.0%)	10.3	(101.0%)	10.1	(104.0%)	10.4	(100.0%)	10.0	~2.0	CCN(CC)CC(=O)Nc1c(C)cccc1C [Lidocaine]		
2	2	3	3	(102.5%)	4.1	(100.0%)	4.0	(100.0%)	4.0	(95.0%)	3.8	~2.0	CCCCNc1ccc(C(=O)OCCN(C)C)cc1 [Tetracaine]		up to 2 hours
